Results as given in patent US12686690B2, “Macrocyclic urea orexin receptor agonists” (Merck Sharp & Dohme LLC, priority 2020, dated 2026).

Target: T1, hOX2R (Homo sapiens, UniProt O43614)
T1 construct: expressed in transfected cells; host or cells: CHO cells (G418 selection)
T1 sequence (O43614 1-444): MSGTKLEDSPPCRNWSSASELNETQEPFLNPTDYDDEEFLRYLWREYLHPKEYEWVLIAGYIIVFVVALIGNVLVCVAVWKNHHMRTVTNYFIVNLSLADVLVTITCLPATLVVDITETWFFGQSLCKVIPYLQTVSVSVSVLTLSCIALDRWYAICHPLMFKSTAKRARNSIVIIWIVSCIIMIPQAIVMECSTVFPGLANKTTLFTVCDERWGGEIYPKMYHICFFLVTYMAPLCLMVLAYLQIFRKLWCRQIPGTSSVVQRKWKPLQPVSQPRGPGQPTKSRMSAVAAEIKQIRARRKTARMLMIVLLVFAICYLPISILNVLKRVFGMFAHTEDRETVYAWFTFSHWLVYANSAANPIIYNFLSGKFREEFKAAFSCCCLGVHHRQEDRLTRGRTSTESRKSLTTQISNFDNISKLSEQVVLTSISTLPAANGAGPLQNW
Experiment: hOX2R IPone assay (orexin receptor agonism)
Assay type: cell-based
Conditions: IPone readout; for hOX2R_Ipone max %act: maximal activation; for EC50: orexin receptor agonist, read-out: hOX2R_IPone EC50

| hOX2R_Ipone max %act [%] | EC50 [nM] | Compound |
| --- | --- | --- |
| 99.3 | 1 | CCN1C(=O)N[C@@H](CCC(F)(F)F)CCCCCOc2nc(cn3ccnc23)-c2cc(ncc2C)[C@H]1C [Example 79, (12R,16R)-13-ethyl-8,12-dimethyl-16-(3,3,3-trifluoro-propyl)-12,13,16,17, 18,19,20,21-octa-hydro-6,23-(azeno)-11,7-(metheno) imidazo[2,1-c][1,4,10, 13,15]oxatetraazacyclo-henicosin-14(15H)-one] |
| 102.2 | 0.77 | CCN1C(=O)NC(CC(O)C(F)(F)F)CCCCCOc2cn3ncnc3c(n2)-c2cc(ncc2OC)C1C [Example 131, (3R,7R,E)-4-ethyl-25-methoxy-3-methyl-7-((S)-3,3,3-trifluoro-2-hydroxypropyl)-13-oxa-4,6-diaza-1(6,8)-[1,2,4]triazolo[1,5-a]pyrazina-2(4,2)-pyridinacyclotridecaphan-5-one] |
| 99.3 | 3.5 | CCN1C(=O)N[C@@H](CCC(F)(F)F)CCCCCOc2nc(c(C)n3ccnc23)-c2cc(cnc2OC)[C@H]1C [Example 86, (12R,16R)-13-ethyl-8-methoxy-5,12-dimethyl-16-(3,3,3-trifluoropropyl)-12,13,16,17,18,19,20, 21-octahydro-6,23-(azeno)-11,7-(metheno)imidazo[2,1-c][1,4,9,13,15] oxatetraazacycloheni-cosin-14(15H)-one] |
| 102.5 | 13.8 | CCN1C(=O)N[C@@H](CCC(F)(F)F)CCCCCOc2nc(nn3cc(C)nc23)-c2cc(ncc2OC)[C@H]1C [Example 123, (3R,7R,E)-4-ethyl-25-methoxy-16,3-dimethyl-7-(3,3,3-trifluoropropyl)-13-oxa-4,6-diaza-1(2,4)-imidazo[2,1-f][1,2,4]triazina-2(4,2)-pyridinacyclotridecaphan-5-one] |
| 100.9 | 115 | CCN1C(=O)NC(CCC(F)(F)F)C(C)/C=C\COc2nc(cn3ccnc23)-c2cccc(c2)[C@H]1C (single isomer, unassigned) [Example 41A] |
| 99.4 | 13.9 | CCN1C(=O)NCC(C(F)(F)F)N(C)CCCOc2nc(cn3ccnc23)-c2cccc(c2)C1C [Example 26A, (3R,E)-4-ethyl-3,9-dimethyl-8-(trifluoromethyl)-13-oxa-4,6,9-triaza-1(6,8)-imidazo[1,2-a]pyrazina-2(1,3)-benzenacyclotridecaphan-5-one] |
| 100.8 | 13.1 | CCN1C(=O)N[C@@H](CC(F)(F)F)CCCCCOc2nc(cn3ccnc23)-c2ccnc(c2)[C@H]1C [Example 103, (12R,16R)-13-ethyl-12-methyl-16-(2,2,2-trifluoroethyl)-12,13,16,17,18,19,20, 21-octahydro-6,23-(azeno)-11,7-(metheno)imidazo[2,1-c][1,4,10,13,15] oxatetraazacycloheni-cosin-14(15H)-one] |
| 99.9 | 9.9 | CCN1C(=O)N[C@@H](CCC(F)(F)F)CCCCOc2nc(nn3ccnc23)-c2cc(cnc2OC)[C@H]1C [Example 46, (3R,7R,E)-4-ethyl-22-methoxy-3-methyl-7-(3,3,3-trifluoropropyl)-12-oxa-4,6-diaza-1(2,4)-imidazo[2,1-f][1,2,4]triazina-2(3,5)-pyridinacyclododecaphan-5-one] |
| 108.5 | 12.1 | CCN1C(=O)NC(C)/C=C/CC(F)(F)COc2cn3ccnc3c(n2)-c2cc(ncc2OC)[C@H]1C (stereo partly drawn) [Example 220, (1^7E,3R,8E)-4-ethyl-11,11-difluoro-25-methoxy-3,7-dimethyl-13-oxa-4,6-diaza-1(6,8)-imidazo[1,2-a]pyrazina-2(4,2)-pyridinacyclotridecaphan-8-en-5-one] |
| 99.9 | 541 | CCN1C(=O)N[C@@H](CCC(F)(F)F)CCCCOc2nc(cn3ncnc23)-c2cc(ncc2OC)C1C(F)(F)F (single isomer, unassigned) [Example 34A] |
| 101.6 | 1.2 | CCN1C(=O)NC(C2CC2)CCCCCOc2nc(cn3ccnc23)-c2cc(ncc2OC)[C@H]1C (single isomer, unassigned) [Example 57B] |
| 102.2 | 10 | CCN1C(=O)N[C@@H](CCC(F)(F)F)CCCCCOc2cc(nc3ccnn23)-c2cc(ncc2OC)[C@H]1C [Example 100, (11R,15R)-12-ethyl-7-methoxy-11-methyl-15-(3,3,3-trifluoropropyl)-11,12,15,16,17,18,19, 20-octahydro-5,22: 10,6-di(metheno)pyrazolo [1,5-c][1,3,5,10,13,15] oxapentaazacycloheni-cosin-13(14H)-one] |
| 99.9 | 39.2 | CCOCC1CCCCCOc2nc(cn3ccnc23)-c2cc(ncc2OC)[C@@H](C)N(CC)C(=O)N1 (single isomer, unassigned) [Example 62A] |
| 100.2 | 67.8 | CCN1C(=O)N[C@@H](CCC(F)(F)F)CCCCCOc2nc(cc3ccnn23)-c2cc(ncc2OC)C1C (single isomer, unassigned) [Example 88A] |
| 102.3 | 1.02 | CCN1C(=O)NC(CC(F)F)CCCCCOc2nc(cn3ccnc23)-c2cc(ncc2OC)[C@H]1C (stereo partly drawn) [Example 186, (3R,E)-7-(2,2-difluoroethyl)-4-ethyl-25-methoxy-3-methyl-13-oxa-4,6-diaza-1(6,8)-imidazo[1,2-a]pyrazina-2(4,2)-pyridinacyclotridecaphan-5-one] |
| 101.4 | 6 | CCN1C(=O)N[C@@H](CCC(F)(F)F)CCCCCOc2nc(cn3cc(C)nc23)-c2cc(nc3ccoc23)C1C (single isomer, unassigned) [Example 75B] |
| 101.7 | 26 | CCN1C(=O)N[C@@H](CCC(F)(F)F)CCCCCOc2nc(cn3ccnc23)-c2nc(ncc2OC)[C@@H]1C [Example 117A, (12S,16R)-13-ethyl-8-methoxy-12-methyl-16-(3,3,3-trifluoropropyl)-12,13,16,17,18,19,20,21-octahydro-6,23:11,7-di(azeno)imidazo[2,1-c][1,4,10,13,15]oxatetraazacyclohenicosin-14(15H)-one] |
| 100.7 | 119 | CCN1C(=O)NC(C2CC2)CCCCCOc2nc(cn3ccnc23)-c2cc(ncc2OC)[C@H]1C (single isomer, unassigned) [Example 57A] |
| 100.1 | 3.1 | CCN1C(=O)NC(CC2CC2(F)F)CCCCCOc2nc(cn3ccnc23)-c2cc(ncc2OC)[C@H]1C (single isomer, unassigned) [Example 59B] |
| 104.9 | 3.56 | CCN1C(=O)NC(c2csc(C)n2)CCCCCOc2nc(cn3ccnc23)-c2cc(cnc2OC)C1C [Example 215, (3R,E)-4-ethyl-22-methoxy-3-methyl-7-(2-methylthiazol-4-yl)-13-oxa-4,6-diaza-1(6,8)-imidazo[1,2-a]pyrazina-2(3,5)-pyridinacyclotridecaphan-5-one] |
| 100.7 | 1 | CCN1C(=O)N[C@@H](CCC(C)(F)F)CCCCCOc2nc(cn3ccnc23)-c2cc(ncc2OC)[C@H]1C [Example 83, (12R,16R)-16-(3,3-difluorobutyl)-13-ethyl-8-methoxy-12-methyl-12,13,16,17, 18,19,20,21-octa-hydro-6,23-(azeno)-11,7-(metheno) imidazo[2,1-c][1,4,9,13,15]oxatetraazacy-clohenicosin-14(15H)-one] |
| 104.7 | 4.29 | CCN1C(=O)NC(CC(C)(F)F)CCCCCOc2nc(nn3ccnc23)-c2cc(ncc2OC)[C@H]1C (stereo partly drawn) [Example 207, (3R,E)-7-(2,2-difluoropropyl)-4-ethyl-25-methoxy-3-methyl-13-oxa-4,6-diaza-1(2,4)-imidazo[2,1-f][1,2,4]triazina-2(4,2)-pyridinacyclo-tridecaphan-5-one] |
| 98.43 | 315 | CCN1C(=O)NC(C(C)(C)C)CCCCCOc2nc(cn3ccnc23)-c2cc(ncc2OC)[C@H]1C (single isomer, unassigned) [Example 63A] |
| 100.9 | 2.2 | CCN1C(=O)NC(CCCOC)CCCCCOc2nc(cn3ccnc23)-c2cc(ncc2OC)[C@H]1C (single isomer, unassigned) [Example 60B] |
| 97.1 | 337 | CCN1C(=O)NC(c2cscn2)CCCCCOc2nc(cn3ccnc23)-c2cccc(c2)[C@H]1C (single isomer, unassigned) [Example 19A] |
| 99.4 | 4.1 | CCN1C(=O)NC(CCC(F)(F)F)CC(C)CCOc2nc(cn3ccnc23)-c2cccc(c2)[C@H]1C (single isomer, unassigned) [Example 48A] |
| 100.1 | 5.43 | CCN1C(=O)N[C@@H](CCC(F)F)CCOCCOc2nc(nn3ccnc23)-c2cc(ncc2F)[C@H]1C [Example 127, (3R,7S,E)-7-(3,3-difluoropropyl)-4-ethyl-25-fluoro-3-methyl-10,13-dioxa-4,6-diaza-1(2,4)-imidazo[2,1-f][1,2,4]triazina-2(4,2)-pyridinacyclotridecaphan-5-one] |
| 100.6 | 6.4 | (3R,7S,E)-4-ethyl-25-methoxy-3-methyl-7-(3,3,3-trifluoropropyl)-13-oxa-10-thia-4,6-diaza-1(6,8)-[1,2,4]triazolo[1,5-a]pyrazina-2(4,2)-pyridinacyclotridecaphan-5-one [Example 134] |
